In PubChem BioAssay (NCI):
“And” between values parts separate entries of the source, which are not always exact repeats. Identical values can stand only once.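 A five-concentration, 48-hour dose response in 96-well plates underlies each endpoint, interpolated linearly between surrounding concentrations. At the GI50, growth is halved. TGI is the concentration that stops growth completely.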

These molecules were tested on HCT-116 colon (assay: NCI tumour cell line growth inhibition, 48 h).

`O=C(O)C12CC3(C(=O)O)CC(C(=O)O)(CC(C(=O)O)(C1)C3=O)C2=O` and `O=C(O)CSc1n[nH]c(Cc2ccccc2)n1` cannot be ordered by TGI: > 100 µM for the first, > 100 µM for the second.

`O=c1c2ccccc2nc(-c2ccccc2)n1NC(=S)Nc1ccccc1` and `O=c1nc(-c2ccccc2)cc(-c2ccccc2O)[nH]1` cannot be ordered by TGI: > 100 µM for the first, > 100 µM for the second.

`CCOC(=O)/C(=C/c1cccc(C#N)c1)N(CC)CC` and `CCOc1ccccc1NC(=O)C(=O)Cc1nc2ccccc2s1` cannot be ordered by TGI: > 100 µM for the first, > 100 µM for the second.

`O=S1(=O)OCCOS(=O)(=O)C1Cl` and `C=CCn1c2c(sc1=S)C(S)N=CN2` (stereo not drawn) cannot be ordered by TGI: > 100 µM for the first, > 100 µM for the second.

Going from `Nc1ccc2nc3n(c2c1)C(=O)c1ccccc1-3` to `O=C1C(Cl)=C(Nc2ccccc2O)C(=O)N1Cc1ccccc1`, the TGI falls from > 100 µM to 33.7 µM.

`Oc1ccc(Br)cc1C=Nc1ccc(N=Cc2cc(Br)ccc2O)cc1` and `Cc1cccc(N=C2NC(=O)C(CC(=O)Nc3cccc(C)c3C)S2)c1` (stereo not drawn) cannot be ordered by TGI: > 100 µM for the first, > 100 µM for the second.

`CN(C)CCSc1nccc(-c2cc3ccccc3s2)n1` gave a TGI of 50.9 µM.

In the case of `C=CCN1CC2CON(C(=O)C(OC)(c3ccccc3)C(F)(F)F)C2C1C(C)C` (stereo not drawn), the GI50 was 24.2 µg/mL.

With `O=C1C(Cl)=C(Nc2ccccc2O)C(=O)N1Cc1ccccc1` the GI50 was 19.6 µM.

With `CCOc1ccccc1NC(=O)C(C#N)C1=C(Cl)C(=O)c2ccccc2C1=O` (stereo not drawn) the TGI was 3.38 µM and 3.93 µM.

The molecules below were run on T-47D breast (assay: NCI tumour cell line growth inhibition, 48 h).

In order of falling GI50:
1. O=C1CSC(c2ccc(-c3nc4ccccc4s3)cc2)=N1  90.9 µM
2. O=C1C(Cl)=C(Nc2ccccc2O)C(=O)N1Cc1ccccc1  23.3 µM
3. Clc1cc(Cl)cc(Nc2ccc3cc(OCCCN4CCOCC4)ccc3n2)c1  3.01 µM
4. CN1CCN(c2ccc(Nc3ncc4cc(C#N)c(=O)n(C5CCCC5)c4n3)cc2)CC1  2.32 µM

Going from `CN1CCN(c2ccc(Nc3ncc4cc(C#N)c(=O)n(C5CCCC5)c4n3)cc2)CC1` to `Clc1cc(Cl)cc(Nc2ccc3cc(OCCCN4CCOCC4)ccc3n2)c1`, the TGI falls from > 100 µM to 14.1 µM.

`Nc1ccc2[nH]cc(CCC(=O)O)c2c1` and `Nc1nc(N)c2cc(CNc3ccc(C(=O)NC(CC(=O)O)C(=O)O)c(Cl)c3)ccc2n1` (stereo not drawn) cannot be ordered by TGI: > 100 µM for the first, > 500 µM for the second.

First: Cc1ccc(S(=O)(=O)NC(=O)NC2=NC(C)(C)N(c3ccc(Cl)c(Cl)c3)C(N)=N2)cc1
Second: O=C1C(Cl)=C(Nc2ccccc2O)C(=O)N1Cc1ccccc1
The TGI of the first is higher: > 100 µM for the first, 52.7 µM for the second.

`CC(O)CC(O)(C(F)(F)F)C(F)(F)F` (stereo not drawn) and `CC1=CC(=O)C(C(O)(C(F)(F)F)C(F)(F)F)C(C)(C)C1` (stereo not drawn) cannot be ordered by TGI: > 10 µM for the first, > 10 µM for the second.

`O=C1CSC(c2ccc(-c3nc4ccccc4s3)cc2)=N1` and `O=C(O)C12CC3(C(=O)O)CC(C(=O)O)(CC(C(=O)O)(C1)C3=O)C2=O` cannot be ordered by TGI: > 100 µM for the first, > 100 µM for the second.

With `C=CCN1CC2CON(C(=O)C(OC)(c3ccccc3)C(F)(F)F)C2C1C(C)C` (stereo not drawn) the GI50 was 34.5 µg/mL.

These molecules were tested on HOP-92 NSCLC (assay: NCI tumour cell line growth inhibition, 48 h).

`OCC(O)CNc1ccnc2cc(Cl)ccc12` (stereo not drawn) and `N#CC(C(=O)CCC(=O)Nc1cccc(C(F)(F)F)c1)c1ccc(Cl)cc1` (stereo not drawn) cannot be ordered by TGI: > 100 µM for the first, > 100 µM for the second.

Going from `Cc1cccc(C(C)C)c1NC(=O)C(=O)C(C(=O)c1ccccc1F)C1OC(=O)c2ccccc21` (stereo not drawn) to `Cc1cccc(C)c1NC(=O)C(=O)CC(=O)c1cccc([N+](=O)[O-])c1`, the TGI rises from 48.2 µM to > 100 µM.

`CC1=C(c2cc(C(=O)Nc3ccc(Cl)cc3)nc(=S)[nH]2)Sc2ccccc2N1` and `COC(=O)c1cccc2cccc(C(=O)Nc3ccc(Cl)cc3)c12` cannot be ordered by TGI: > 100 µM for the first, > 100 µM for the second.

Compared with `O=C(O)CN(c1ccccc1)S(=O)(=O)c1ccc([N+](=O)[O-])cc1`, `[F][Sn]([F])([c]1ccccc1)[c]1ccccc1` is lower in TGI: > 100 µM for the first, 3.13 µM for the second.

Compared with `Clc1cc(Cl)cc(Nc2ccc3cc(OCCCN4CCOCC4)ccc3n2)c1`, `O=C1C(=O)N(c2cc(Cl)ccc2Cl)C(=O)C(=O)C1c1nc2ccccc2o1` is higher in TGI: 5.01 µM for the first, > 100 µM for the second.

Going from `Cc1cc(C(C)(C)C)cc(Cc2cc(C(C)(C)C)cc(Cc3cc(C(C)(C)C)cc(C)c3O)c2O)c1O` to `CCOC(=O)Cn1c(=O)n(C)c(=O)c2c1ncn2Cc1ccccc1`, the TGI rises from 10.5 µM to > 100 µM.

Going from `COC1=C(Br)C(=O)c2nc(C)ccc2C1=O` to `O=C1CSC(c2ccc(-c3nc4ccccc4s3)cc2)=N1`, the TGI rises from 15.5 µM to > 100 µM.

`C/C(CCn1[nH]c(=O)ccc1=O)=N\OCCCc1ccccc1` and `CC(C)(C)OC(=O)N1N=NC2C1C1CC(OCc3ccccc3)(OCc3ccccc3)C2O1` (stereo not drawn) cannot be ordered by TGI: > 100 µM for the first, > 100 µM for the second.

Compared with `N.N.NCCCCCCCCCN.O=C([O-])CC(=O)[O-].O=C([O-])CC(=O)[O-].[Pt+4].[Pt+4]`, `CC(=O)OC1C2CCC1C1C2C2(Cl)C(Cl)=C(Cl)C1(Cl)C2(Cl)Cl` (stereo not drawn) is lower in TGI: > 100 µM for the first, 23.3 µM for the second.

Compared with `Clc1cc(Cl)cc(Nc2ccc3cc(OCCCN4CCOCC4)ccc3n2)c1`, `O=C1CSC(c2ccc(-c3nc4ccccc4s3)cc2)=N1` is higher in GI50: 1.63 µM for the first, > 100 µM for the second.

First: [F][Sn]([F])([c]1ccccc1)[c]1ccccc1
Second: N.N.NCCCCCCCCCN.O=C([O-])CC(=O)[O-].O=C([O-])CC(=O)[O-].[Pt+4].[Pt+4]
The GI50 of the first is lower: 1.48 µM for the first, > 100 µM for the second.
